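48-hour exposure; five concentrations; linearly interpolated endpoints. Here, GI50 denotes the concentration required for 50% inhibition of growth. TGI: concentration producing complete growth inhibition.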
What was measured:
Test in all cases: growth of human tumour cells (NCI), 48 h; in the data active = GI50 below about 0.43 µM; inactive = the rest
OVCAR-3 ovarian = system: OVCAR-3 ovarian
EKVX NSCLC = system: EKVX NSCLC
DU-145 prostate = system: DU-145 prostate
KM12 colon = system: KM12 colon
SK-MEL-28 melanoma = system: SK-MEL-28 melanoma
SF-295 CNS = system: SF-295 CNS
K-562 leukemia = system: K-562 leukemia
HT29 colon = system: HT29 colon
SK-MEL-5 melanoma = system: SK-MEL-5 melanoma
SW-620 colon = system: SW-620 colon
NCI-H23 lung = system: NCI-H23 lung
SN12C renal = system: SN12C renal
SNB-19 CNS = system: SNB-19 CNS
TK-10 renal = system: TK-10 renal
T-47D breast = system: T-47D breast
OVCAR-4 ovarian = system: OVCAR-4 ovarian
UACC-62 melanoma = system: UACC-62 melanoma
HCT-116 colon = system: HCT-116 colon
SK-OV-3 ovarian = system: SK-OV-3 ovarian
HOP-62 NSCLC = system: HOP-62 NSCLC
SF-539 CNS = system: SF-539 CNS
UO-31 renal = system: UO-31 renal
CAKI-1 renal = system: CAKI-1 renal
HS 578T breast = system: HS 578T breast
HCC-2998 colon = system: HCC-2998 colon
COLO 205 colon = system: COLO 205 colon
RPMI-8226 leukemia = system: RPMI-8226 leukemia
CCRF-CEM leukemia = system: CCRF-CEM leukemia
NCI-H226 lung = system: NCI-H226 lung
PC-3 prostate = system: PC-3 prostate
A549 NSCLC = system: A549 NSCLC
MALME-3M melanoma = system: MALME-3M melanoma
LOX IMVI melanoma = system: LOX IMVI melanoma
U251 CNS = system: U251 CNS
NCI-H522 lung = system: NCI-H522 lung
786-0 renal = system: 786-0 renal
SR leukemia = system: SR leukemia
MCF7 breast = system: MCF7 breast
BT-549 breast = system: BT-549 breast
OVCAR-8 ovarian = system: OVCAR-8 ovarian
MDA-N = system: MDA-N
MDA-MB-435 = system: MDA-MB-435
UACC-257 melanoma = system: UACC-257 melanoma
OVCAR-5 ovarian = system: OVCAR-5 ovarian
HCT-15 colon = system: HCT-15 colon
ACHN renal = system: ACHN renal
A498 renal = system: A498 renal
MOLT-4 leukemia = system: MOLT-4 leukemia
SK-MEL-2 melanoma = system: SK-MEL-2 melanoma
MDA-MB-231 breast = system: MDA-MB-231 breast
SNB-75 CNS = system: SNB-75 CNS
RXF 393 renal = system: RXF 393 renal
NCI-H460 lung = system: NCI-H460 lung
M14 melanoma = system: M14 melanoma
HL-60(TB) leukemia = system: HL-60(TB) leukemia
IGROV1 ovarian = system: IGROV1 ovarian
HOP-92 NSCLC = system: HOP-92 NSCLC
SF-268 CNS = system: SF-268 CNS
NCI/ADR-RES ovarian = system: NCI/ADR-RES ovarian

O/N=C1/C2CC3CC1(c1ccccc1)CC(/C3=N/O)/C2=N\O (centres undefined)
> 100 µM: TGI (OVCAR-3 ovarian) | TGI (EKVX NSCLC) | TGI (DU-145 prostate) | TGI (KM12 colon) | TGI (SK-MEL-28 melanoma) | TGI (SF-295 CNS) | TGI (K-562 leukemia) | TGI (HT29 colon) | TGI (SK-MEL-5 melanoma) | TGI (SW-620 colon) | TGI (NCI-H23 lung) | TGI (SN12C renal) | TGI (SNB-19 CNS) | TGI (TK-10 renal) | TGI (T-47D breast) | TGI (OVCAR-4 ovarian) | TGI (UACC-62 melanoma) | TGI (HCT-116 colon) | TGI (SK-OV-3 ovarian) | TGI (HOP-62 NSCLC) | TGI (SF-539 CNS) | TGI (UO-31 renal) | TGI (CAKI-1 renal) | TGI (HS 578T breast) | TGI (HCC-2998 colon) | TGI (COLO 205 colon) | TGI (RPMI-8226 leukemia) | TGI (CCRF-CEM leukemia) | TGI (NCI-H226 lung) | TGI (PC-3 prostate) | TGI (A549 NSCLC) | TGI (MALME-3M melanoma) | TGI (LOX IMVI melanoma) | TGI (U251 CNS) | TGI (NCI-H522 lung) | TGI (786-0 renal) | TGI (SR leukemia) | TGI (MCF7 breast) | TGI (BT-549 breast) | TGI (OVCAR-8 ovarian) | TGI (MDA-N) | TGI (MDA-MB-435) | TGI (UACC-257 melanoma) | TGI (OVCAR-5 ovarian) | TGI (HCT-15 colon) | TGI (ACHN renal) | TGI (A498 renal) | TGI (MOLT-4 leukemia) | TGI (SK-MEL-2 melanoma) | TGI (MDA-MB-231 breast) | TGI (SNB-75 CNS) | TGI (RXF 393 renal) | TGI (NCI-H460 lung) | TGI (M14 melanoma) | TGI (HL-60(TB) leukemia)

NS(=O)(=O)c1cccc(-c2ccc3c(NC(=O)C4CC4)n[nH]c3c2)c1
inactive: GI50 (IGROV1 ovarian) > 25 µM | GI50 (OVCAR-3 ovarian) 6.71 µM | GI50 (EKVX NSCLC) > 25 µM | GI50 (DU-145 prostate) 14.7 µM | GI50 (KM12 colon) 11.3 µM | GI50 (SK-MEL-28 melanoma) 15.7 µM | GI50 (SF-295 CNS) > 25 µM | GI50 (K-562 leukemia) 8.38 µM | GI50 (HT29 colon) > 14.4 µM | GI50 (SK-MEL-5 melanoma) > 14.7 µM | GI50 (HOP-92 NSCLC) > 25 µM | GI50 (SW-620 colon) > 15.1 µM | GI50 (NCI-H23 lung) > 25 µM | GI50 (SN12C renal) > 21.1 µM | GI50 (SNB-19 CNS) 20.4 µM | GI50 (SF-268 CNS) > 21.6 µM | GI50 (TK-10 renal) > 25 µM | GI50 (T-47D breast) 13.3 µM | GI50 (OVCAR-4 ovarian) 16.7 µM | GI50 (NCI/ADR-RES ovarian) > 25 µM | GI50 (UACC-62 melanoma) 15.7 µM | GI50 (HCT-116 colon) > 16.9 µM | GI50 (SK-OV-3 ovarian) 9.16 µM | GI50 (HOP-62 NSCLC) > 14.2 µM | GI50 (SF-539 CNS) 14.3 µM | GI50 (UO-31 renal) > 25 µM | GI50 (CAKI-1 renal) > 25 µM | GI50 (HS 578T breast) 9.6 µM | GI50 (HCC-2998 colon) > 22.1 µM | GI50 (COLO 205 colon) > 14.5 µM | GI50 (RPMI-8226 leukemia) > 25 µM | GI50 (CCRF-CEM leukemia) 8.51 µM | GI50 (NCI-H226 lung) > 15.1 µM | GI50 (PC-3 prostate) 15.6 µM | GI50 (A549 NSCLC) > 25 µM | GI50 (MALME-3M melanoma) > 19.8 µM | GI50 (LOX IMVI melanoma) 19.4 µM | GI50 (U251 CNS) 12.8 µM | GI50 (NCI-H522 lung) 5.32 µM | GI50 (786-0 renal) 24.3 µM | GI50 (SR leukemia) 3.59 µM | GI50 (MCF7 breast) > 13.3 µM | GI50 (BT-549 breast) > 21 µM | GI50 (OVCAR-8 ovarian) 24.3 µM | GI50 (MDA-MB-435) 5.31 µM | GI50 (UACC-257 melanoma) > 18.1 µM | GI50 (OVCAR-5 ovarian) > 25 µM | GI50 (HCT-15 colon) > 25 µM | GI50 (ACHN renal) > 25 µM | GI50 (A498 renal) > 19.8 µM | GI50 (MOLT-4 leukemia) 19.2 µM | GI50 (SK-MEL-2 melanoma) 8.78 µM | GI50 (MDA-MB-231 breast) 25 µM | GI50 (SNB-75 CNS) > 13.8 µM | GI50 (RXF 393 renal) > 15 µM | GI50 (NCI-H460 lung) > 16.4 µM | GI50 (M14 melanoma) 12.3 µM | GI50 (HL-60(TB) leukemia) 8.31 µM
24.7 µM: TGI (HOP-62 NSCLC)
15.3 µM: TGI (MDA-MB-435)
> 24.1 µM: TGI (MCF7 breast)
24.9 µM: TGI (SK-MEL-2 melanoma)
> 22.5 µM: TGI (HL-60(TB) leukemia)
> 17.6 µM: TGI (OVCAR-3 ovarian)
> 25 µM: TGI (IGROV1 ovarian) | TGI (EKVX NSCLC) | TGI (DU-145 prostate) | TGI (KM12 colon) | TGI (SK-MEL-28 melanoma) | TGI (SF-295 CNS) | TGI (K-562 leukemia) | TGI (HT29 colon) | TGI (SK-MEL-5 melanoma) | TGI (HOP-92 NSCLC) | TGI (SW-620 colon) | TGI (NCI-H23 lung) | TGI (SN12C renal) | TGI (SNB-19 CNS) | TGI (SF-268 CNS) | TGI (TK-10 renal) | TGI (T-47D breast) | TGI (OVCAR-4 ovarian) | TGI (NCI/ADR-RES ovarian) | TGI (UACC-62 melanoma) | TGI (HCT-116 colon) | TGI (SF-539 CNS) | TGI (UO-31 renal) | TGI (CAKI-1 renal) | TGI (HS 578T breast) | TGI (HCC-2998 colon) | TGI (RPMI-8226 leukemia) | TGI (CCRF-CEM leukemia) | TGI (NCI-H226 lung) | TGI (PC-3 prostate) | TGI (A549 NSCLC) | TGI (MALME-3M melanoma) | TGI (LOX IMVI melanoma) | TGI (U251 CNS) | TGI (786-0 renal) | TGI (SR leukemia) | TGI (BT-549 breast) | TGI (OVCAR-8 ovarian) | TGI (UACC-257 melanoma) | TGI (OVCAR-5 ovarian) | TGI (HCT-15 colon) | TGI (ACHN renal) | TGI (A498 renal) | TGI (MOLT-4 leukemia) | TGI (MDA-MB-231 breast) | TGI (SNB-75 CNS) | TGI (RXF 393 renal) | TGI (NCI-H460 lung) | TGI (M14 melanoma)
> 19 µM: TGI (NCI-H522 lung)
23.6 µM: TGI (SK-OV-3 ovarian)
> 22.9 µM: TGI (COLO 205 colon)

CC[C@H]1C=CCC[C@@]2(C[C@@H]3CC[C@@H]4[C@H](C(=O)OCCCCCCCCCCCCCCCC(=O)N(CCCN)CCCCN)[C@]5(CCC[C@@H](C)O5)NC(=[N+]34)N2)O1
1.59 µM: TGI (CAKI-1 renal)
1.99 µM: TGI (SNB-19 CNS)
0.119 µM: TGI (MALME-3M melanoma)
1.46 µM: TGI (PC-3 prostate)
1.42 µM: TGI (A549 NSCLC)
0.197 µM: TGI (HOP-92 NSCLC)
1.83 µM: TGI (MDA-N)
1.41 µM: TGI (HCT-116 colon)
0.106 µM: TGI (HOP-62 NSCLC)
1.2 µM: TGI (KM12 colon)
2.28 µM: TGI (IGROV1 ovarian)
0.334 µM: TGI (UO-31 renal)
0.0187 µM: TGI (M14 melanoma)
1.54 µM: TGI (U251 CNS)
1.07 µM: TGI (NCI-H23 lung)
1.4 µM: TGI (HCT-15 colon)
2.7 µM: TGI (NCI/ADR-RES ovarian)
1.32 µM: TGI (HT29 colon)

— PubChem BioAssay (NCI)
